Measurements published in patent publication US20060100431A1, “Biologically active compounds” (Amura Therapeutics Limited, priority 2002, published 2006).

Experiments:
[1] = biological target: T1, CPB2.8ΔCTE (Leishmania mexicana, UniProt P36400); assay: Leishmania mexicana cysteine protease B (CPB) peptidase activity assay (Ki); type: biochemical; details: Ki, inhibitors of Leismania mexicana CPB protease
T1 construct: Wild-type recombinant CPB without the C-terminal extention (i.e. CPB2.8ΔCTE); Dr. Jeremy Mottram (Wellcome Centre for Molecular Parasitology, University of Glasgow)
Outline: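 Apparent Ki was derived by regression of activity against inhibitor concentration, assuming pure-competitive reversible binding. Reaction: 0.25 nM CPB lacking the C-terminal extension, pH 5.5 acetate buffer (1 mM EDTA, 200 mM NaCl, 10 mM DTT), 25 °C, followed by continuous substrate fluorescence.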

[2] = biological target: Wild-type cruzipain (Trypanosoma cruzi, UniProt P25779); assay: Trypanosoma cruzi cruzipain peptidase activity assay (Ki); type: biochemical; details: read-out: Ki, inhibitors of cruzain and cruzipains
Outline: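 Native cruzipain from T. cruzi Dm28 epimastigotes, 2.5 nM, in 100 mM sodium phosphate pH 6.75 with 1 mM EDTA and 10 mM L-cysteine, 25 °C, DMSO <1%. Rates taken from continuous fluorogenic substrate read; Ki by regression assuming reversible pure-competitive inhibition.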

Wild-type cruzipain, sequence (P25779 whole entry): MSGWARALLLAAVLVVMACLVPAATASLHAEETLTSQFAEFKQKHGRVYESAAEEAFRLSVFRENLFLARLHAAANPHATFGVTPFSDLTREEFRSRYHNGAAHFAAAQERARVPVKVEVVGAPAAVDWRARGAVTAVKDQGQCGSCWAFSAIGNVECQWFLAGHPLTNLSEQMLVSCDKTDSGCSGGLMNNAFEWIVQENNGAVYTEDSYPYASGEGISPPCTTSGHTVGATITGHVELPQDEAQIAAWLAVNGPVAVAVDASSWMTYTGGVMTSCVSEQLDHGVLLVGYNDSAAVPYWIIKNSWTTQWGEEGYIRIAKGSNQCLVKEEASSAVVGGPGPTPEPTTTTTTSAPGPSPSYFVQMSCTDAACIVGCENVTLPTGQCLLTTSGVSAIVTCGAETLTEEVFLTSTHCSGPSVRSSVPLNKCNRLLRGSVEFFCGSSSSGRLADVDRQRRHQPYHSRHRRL
T1 sequence (P36400 126-343, stated change not applied): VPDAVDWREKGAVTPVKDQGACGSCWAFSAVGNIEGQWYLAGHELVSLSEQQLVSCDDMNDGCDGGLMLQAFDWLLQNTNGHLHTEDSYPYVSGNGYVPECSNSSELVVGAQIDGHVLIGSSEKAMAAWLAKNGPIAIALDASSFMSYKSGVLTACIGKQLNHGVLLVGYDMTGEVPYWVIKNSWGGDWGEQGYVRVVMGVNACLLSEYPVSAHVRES

| SMILES | Ki [1] | Ki [2] |
| --- | --- | --- |
| CC(=O)N[C@@H](CC(C)C)C(=O)N1CC(=O)[C@@H]2[C@H]1CCN2C(=O)[C@H](Cc1ccc(O)cc1)NC(=O)c1cccc(Br)c1 [Example 345, (3aR,6aS)-N-[(1S)-2-[4-((2S)-2-Acetylamino-4-methyl-pentanoyl)-6-oxo-hexahydro-pyrrolo[3,2-b]pyrrol-1-yl]-1-(4-hydroxy-benzyl)-2-oxo-ethyl]-3-bromo-benzamide] | < 5 µM | < 5 µM |
| NCc1ccc(C(=O)N[C@@H](Cc2ccc(O)cc2)C(=O)N2CC[C@@H]3[C@H]2C(=O)CN3C(=O)c2ccccc2)cc1 [Example 318] | < 5 µM | < 5 µM |
| CC(C)C[C@H](NC(=O)c1ccc(N(C)C)cc1)C(=O)N1CC[C@@H]2[C@H]1C(=O)CN2C(=O)c1ccc(N)cc1 [Example 50, (3aR,6aS)-N-{(1S)-1-[4-(4-Amino-benzoyl)-6-oxo-hexahydro-pyrrolo[3,2-b]pyrrole-1-carbonyl]-3-methyl-butyl}-4-dimethylamino-benzamide] | < 5 µM | < 5 µM |
| COc1ccccc1C(=O)N1CC(=O)[C@@H]2[C@H]1CCN2C(=O)[C@H](CC(C)C)NC(=O)c1ccc(N(C)C)cc1 [Example 64, (3aR,6aS)-4-Dimethylamino-N-{(1S)-1-[4-(2-methoxy-benzoyl)-6-oxo-hexahydro-pyrrolo[3,2-b]pyrrole-1-carbonyl]-3-methyl-butyl}-benzamide] | < 5 µM | < 5 µM |
| CC(C)C[C@H](NC(=O)c1ccc(N(C)C)cc1)C(=O)N1CC[C@@H]2[C@H]1C(=O)CN2C(=O)c1ccc(F)c(F)c1 [Example 116, (3aR,6aS)-N-{(1S)-1-[4-(3,4-Difluoro-benzoyl)-6-oxo-hexahydro-pyrrolo[3,2-b]pyrrole-1-carbonyl]-3-methyl-butyl}-4-dimethylamino-benzamide] | < 5 µM | < 5 µM |
| CC(C)C[C@H](NC(=O)c1ccc(N(C)C)cc1)C(=O)N1CC[C@@H]2[C@H]1C(=O)CN2C(=O)[C@@H](N)[C@@H](C)O [Example 207, (3aR,6aS)-N-{(1S)-1-[4-((2S,3R)-2-Amino-3-hydroxy-butyryl)-6-oxo-hexahydro-pyrrolo[3,2-b]pyrrole-1-carbonyl]-3-methyl-butyl}-4-dimethylamino-benzamide] | < 5 µM | < 5 µM |
| CN[C@@H](CC(C)C)C(=O)N1CC(=O)[C@@H]2[C@H]1CCN2C(=O)[C@H](CC(C)C)NC(=O)c1ccc(N(C)C)cc1 [Example 220, (3aR,6aS)-4-Dimethylamino-N-{(1S)-3-methyl-1-[4-((2S)-4-methyl-2-methylamino-pentanoyl)-6-oxo-hexahydro-pyrrolo[3,2-b]pyrrole-1-carbonyl]-butyl}-benzamide] | < 5 µM | < 5 µM |
| CCCCCCC(=O)N1CC(=O)[C@@H]2[C@H]1CCN2C(=O)[C@H](CC(C)C)NC(=O)c1ccc(N(C)C)cc1 [Example 136, (3aR,6aS)-4-Dimethylamino-N-[(1S)-1-(4-heptanoyl-6-oxo-hexahydro-pyrrolo[3,2-b]pyrrole-1-carbonyl)-3-methyl-butyl]-benzamide] | < 5 µM | < 5 µM |
| CC(C)C[C@H](NC(=O)c1ccc(N(C)C)cc1)C(=O)N1CC[C@@H]2[C@H]1C(=O)CN2C(=O)[C@@H](O)CC(C)C [Example 233, (3aR,6aS)-4-Dimethylamino-N-{(1S)-1-[4-((2S)2-hydroxy-4 methyl-pentanoyl)-6-oxo-hexahydro-pyrrolo[3,2-b]pyrrole-1-carbonyl]-3-methyl-butyl}-benzamide] | < 5 µM | < 5 µM |
| CC(C)C[C@H](NC(=O)c1ccc(C(C)(C)C)cc1)C(=O)N1CC[C@@H]2[C@H]1C(=O)CN2C(=O)[C@@H](N)CC(C)C [Example 192, (3aR,6aS)-N-{(1S)-1-[4-((2S)-2-Amino-4-methyl-pentanoyl)-6-oxo-hexahydro-pyrrolo[3,2-b]pyrrole-1-carbonyl]-3-methyl-butyl}-4-tert-butyl-benzamide] | < 5 µM | < 5 µM |
